The text below walks through data of patent EP4722228A1, “NEW COMPOUND TARGETING MUSK AND USE THEREOF” (The University of Tokyo, priority 2023, dated 2024).

Bridge positions count the residues as written; N and C are the ends. Square brackets hold non-standard residues; d marks the D form. Peptide text beside a SMILES is read from it. I, II: the chains in the order shown. * marks the point of attachment. Palmitoyl = CCCCCCCCCCCCCCCC(=O)*; PEG3 = NCCOCCOCCOCCC(=O)O; Dap = NC[C@H](N)C(=O)O

In this experiment the target is T1, human MuSK (Homo sapiens, UniProt O15146).
T1 construct: DNA corresponding to the extracellular portion (amino acids 1-493) was amplified by a PCR method; made in house; host or cells: Expi293F cells
T1 sequence (O15146 24-493): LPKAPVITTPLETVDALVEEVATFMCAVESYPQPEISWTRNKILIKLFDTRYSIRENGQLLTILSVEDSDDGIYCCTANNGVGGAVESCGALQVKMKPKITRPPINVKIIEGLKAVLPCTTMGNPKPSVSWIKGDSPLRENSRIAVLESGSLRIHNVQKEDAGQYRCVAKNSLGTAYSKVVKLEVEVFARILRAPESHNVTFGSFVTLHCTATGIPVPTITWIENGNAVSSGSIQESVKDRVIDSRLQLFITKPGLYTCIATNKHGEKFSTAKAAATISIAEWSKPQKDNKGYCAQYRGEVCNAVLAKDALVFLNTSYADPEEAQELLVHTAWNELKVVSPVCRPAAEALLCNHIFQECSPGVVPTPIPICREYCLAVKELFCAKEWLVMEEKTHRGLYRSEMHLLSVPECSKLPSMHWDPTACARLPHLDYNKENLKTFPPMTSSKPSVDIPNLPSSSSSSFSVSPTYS
Put plainly: SPR binding activity test to human MuSK (Biacore). The note with it: Table 5, read-out: Binding activity (KD) (nM) Human. An outline of the steps:
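Extracellular domain (aa 1-493) of human MuSK, expressed as an Fc fusion in Expi293F cells, was captured on Protein G or A chips. Analytes were injected as concentration series in phosphate-buffered saline with 0.05% Tween 20, plus 0.1% DMSO for peptides. ka, kd and KD were obtained from 1:1 binding fits.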
(In general: In SPR one partner is held on a chip, and binding of the other changes the refractive index at the surface.)

The Kd is the constant that tells how readily two partners part at equilibrium. Consider `CCCCCCCCCCCCCCCC(=O)NCCCC[C@H](NC(=O)[C@H](CNC(=O)CCOCCOCCOCCNC(=O)CNC(=O)[C@@H]1CSCC(=O)N[C@H](Cc2ccc(O)cc2)C(=O)N2CCC[C@H]2C(=O)N[C@@H](CO)C(=O)N[C@@H](Cc2ccc(O)cc2)C(=O)N[C@@H](Cc2c[nH]cn2)C(=O)N[C@@H]([C@@H](C)O)C(=O)N[C@@H](CC(N)=O)C(=O)N[C@@H](C(C)C)C(=O)N[C@@H](C(C)C)C(=O)N[C@@H](C)C(=O)N[C@@H](CO)C(=O)N[C@@H](CC(C)C)C(=O)N[C@@H](CCCCN)C(=O)N[C@@H](CCCNC(=N)N)C(=O)N1)NC(=O)CCOCCOCCOCCNC(=O)CNC(=O)[C@@H]1CSCC(=O)N[C@H](Cc2ccc(O)cc2)C(=O)N2CCC[C@H]2C(=O)N[C@@H](CO)C(=O)N[C@@H](Cc2ccc(O)cc2)C(=O)N[C@@H](Cc2c[nH]cn2)C(=O)N[C@@H]([C@@H](C)O)C(=O)N[C@@H](CC(N)=O)C(=O)N[C@@H](C(C)C)C(=O)N[C@@H](C(C)C)C(=O)N[C@@H](C)C(=O)N[C@@H](CO)C(=O)N[C@@H](CC(C)C)C(=O)N[C@@H](CCCCN)C(=O)N[C@@H](CCCNC(=N)N)C(=O)N1)C(N)=O` [MuSK7-pal] (I: {CH2CO}-[dY]PSYHTNVVASLKRCG[PEG3][Dap]K(Palmitoyl)-NH2 / II: {CH2CO}-[dY]PSYHTNVVASLKRCG[PEG3]; amide I:18-II:C; thioether I:N-I:15, II:N-II:15), for which the equilibrium dissociation constant (Kd) was found to be 0.9 nM.
